Broadly, the IC50 is the concentration needed to halve the response being measured.

The record followed here is PubChem BioAssay AID602166 (The Scripps Research Institute Molecular Screening Center, 2012).

Active and inactive are the calls of the source. The rule behind the calls is not given here. Some results are limits rather than exact numbers.

This assay deals with Nuclear receptor coactivator 3 (Homo sapiens) (UniProt Q9Y6Q9). Put plainly: NCOA3 reporter inhibition potency – cell-based, luminescence, dose response (AID 602166).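 Note: potency for reduction of SRC3 reporter signal so compounds are inhibitors.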 The note with it: SRC3 luciferase reporter cell assay.
Sequence of Nuclear receptor coactivator 3 (Homo sapiens) (Q9Y6Q9 whole entry, looked up): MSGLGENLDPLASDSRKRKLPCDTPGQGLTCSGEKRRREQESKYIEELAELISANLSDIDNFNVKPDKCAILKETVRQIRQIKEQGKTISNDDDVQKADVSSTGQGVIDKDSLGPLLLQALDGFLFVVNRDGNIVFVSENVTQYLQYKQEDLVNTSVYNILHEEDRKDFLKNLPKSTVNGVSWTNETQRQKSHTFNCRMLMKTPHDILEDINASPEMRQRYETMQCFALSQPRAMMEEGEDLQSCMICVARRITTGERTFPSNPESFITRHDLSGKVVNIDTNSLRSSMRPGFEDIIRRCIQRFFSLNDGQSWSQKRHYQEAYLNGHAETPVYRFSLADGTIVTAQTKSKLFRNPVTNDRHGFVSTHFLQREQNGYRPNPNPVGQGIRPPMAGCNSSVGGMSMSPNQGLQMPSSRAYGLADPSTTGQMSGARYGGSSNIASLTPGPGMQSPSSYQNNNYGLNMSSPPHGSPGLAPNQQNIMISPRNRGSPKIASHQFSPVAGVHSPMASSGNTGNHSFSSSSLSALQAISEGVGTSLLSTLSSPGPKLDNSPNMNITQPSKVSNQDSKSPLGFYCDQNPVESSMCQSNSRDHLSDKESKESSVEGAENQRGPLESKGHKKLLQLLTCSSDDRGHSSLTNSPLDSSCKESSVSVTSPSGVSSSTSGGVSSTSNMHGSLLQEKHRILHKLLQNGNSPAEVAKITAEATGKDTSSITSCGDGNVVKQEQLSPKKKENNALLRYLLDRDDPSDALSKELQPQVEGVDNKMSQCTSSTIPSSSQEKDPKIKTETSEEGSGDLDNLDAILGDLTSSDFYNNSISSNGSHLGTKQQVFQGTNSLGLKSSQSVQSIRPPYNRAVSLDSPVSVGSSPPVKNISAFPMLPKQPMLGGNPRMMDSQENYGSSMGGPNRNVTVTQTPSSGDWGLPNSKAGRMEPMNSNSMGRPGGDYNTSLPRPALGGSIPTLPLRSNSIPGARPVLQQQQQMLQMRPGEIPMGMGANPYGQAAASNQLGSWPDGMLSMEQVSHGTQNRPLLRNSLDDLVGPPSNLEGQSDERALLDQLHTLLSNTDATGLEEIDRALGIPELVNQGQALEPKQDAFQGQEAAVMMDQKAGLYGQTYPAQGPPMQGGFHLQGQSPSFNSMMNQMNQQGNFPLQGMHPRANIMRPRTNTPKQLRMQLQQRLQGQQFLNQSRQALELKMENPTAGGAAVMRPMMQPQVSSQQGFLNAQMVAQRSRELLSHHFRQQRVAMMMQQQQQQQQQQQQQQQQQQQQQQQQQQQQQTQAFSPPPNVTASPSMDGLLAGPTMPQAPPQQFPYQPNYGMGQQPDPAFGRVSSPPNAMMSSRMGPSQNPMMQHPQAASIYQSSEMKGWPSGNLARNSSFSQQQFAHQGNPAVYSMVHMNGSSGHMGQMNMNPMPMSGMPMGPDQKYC
For `N#Cc1c2ccc(O)cc2n2ccccc12`, the IC50 is 3.41 µM. Take `C[C@@H](C(=O)Nc1ccc2c(c1)OCCO2)n1c(=O)[nH]c2ccccc2c1=O`: the IC50 was > 35.9 µM (inactive).

Consider `Cc1cc(-c2nnc(SCC(=O)Nc3ccccc3C(F)(F)F)o2)c(C)n1-c1ccccc1`, for which the IC50 was > 35.9 µM (inactive). Then `CCCc1c(C)nc2ccccc2c1SCCC#N`, with 7.93 µM; and `COc1cc(/C=N/NC(=Nc2ccc(C)cc2)c2nc3ccccc3s2)ccc1O`, with > 35.9 µM (inactive); and `CN1C(=O)C2(C(C#N)=C(N)N(c3cc(Cl)cc(Cl)c3)C3=C2C(=O)CCC3)c2ccccc21` (centres undefined), with 2.63 µM. `CN(Cc1cnc2nc(N)nc(N)c2n1)c1ccc(C(=O)N[C@@H](CCC(=O)O)C(=O)O)cc1`: the IC50 is > 35.9 µM (inactive).

Turning to `Fc1ccc(CSc2nnc(-c3ccncc3)o2)cc1`, the IC50 is 2.44 µM. Turning to `O=[N+]([O-])c1ccc(N(CCO)CCO)c2c1no[n+]2[O-]`, the half-inhibitory concentration (IC50) was 7.24 µM. `O=C(NC(NC(=S)N1CCOCC1)C(Cl)(Cl)Cl)c1ccc(Cl)cc1` (centres undefined): the IC50 is > 35.9 µM (inactive).

`COc1cc2oc(=O)cc(-c3ccc(-c4ccc(CO)cc4)cc3)c2c(OC)c1OC`: the IC50 is 4.57 µM. As to `CC(=O)/C(N=Nc1ccc2c(c1)OCCO2)=C(\C)O`, the IC50 is > 35.9 µM (inactive).

Turning to `CCCC(=O)NC(c1ccc2c(c1)OCO2)c1cc(Cl)c2cccnc2c1O` (centres undefined), the IC50 is 7.71 µM. As to `NC(=O)c1sc2nc3c(c(-c4ccco4)c2c1N)CCC3`, the IC50 is 1.12 µM.

With `NS(=O)(=O)c1ccc(Sc2nc3ccccc3s2)c([N+](=O)[O-])c1`, the IC50 entry is “inactive”. Consider `O=C(c1ccncc1)N(Cc1cc2ccccc2[nH]c1=O)C1CCCCC1`, for which the 50% inhibitory concentration (IC50) was 5.82 µM. For `COCCNC(=O)c1cc(-c2ccccn2)nc2ccc(S(=O)(=O)N3CCC(C)CC3)cc12` the value was > 35.9 µM (inactive); for `COC(CN(C(=O)CCl)C(C(=O)NC1CCCCC1)c1ccccc1C)OC` (centres undefined), 6.18 µM. `CN(C)c1ccc(CNC(=O)CCNS(=O)(=O)c2cc(Br)cnc2N)cc1`: the IC50 was 4.34 µM.

`OCCN1CCN(C(=S)c2ccc(-c3ccccc3)cc2)CC1`: the concentration for half-maximal inhibition (IC50) is 4.57 µM. Then `Nc1ncnc(NCc2ccccc2)c1[N+](=O)[O-]`, with 5.6 µM; and `CCC(=O)N1CCN(c2ccnc3cc(Cl)ccc23)CC1`, with 8.04 µM. Then `COc1ccc(Nc2ccncc2[N+](=O)[O-])cc1`, with 5.32 µM; and `CCOc1ccc(/C=C2\SC(=S)N(CCC(=O)O)C2=O)cc1`, with > 35.9 µM (inactive). On to `CCC(=O)c1ccc(O)c(CC=C(C)C)c1`, for which the IC50 is 8.77 µM. For `Cc1cc(/C=C2\Cc3ccccc3C2=O)c(C)n1-c1ccccc1` the value was > 35.9 µM (inactive); for `CN(C)c1ccc(C(=S)Nc2ccccc2)cc1`, > 35.9 µM (inactive); for `CCc1ccc(/C=C2\SC(=S)N(CCCC(=O)NCCCN3CCOCC3)C2=O)cc1`, “inactive”. Take `NC(=S)N/N=C1\CCSc2ccc(Cl)cc21`: the IC50 is 3.94 µM. Then `COc1ccc(/C=C2\CC/C(=C\c3ccc(OC)c(OC)c3)C2=O)cc1OC`, with 6.33 µM; and `CCOc1cc(C(N)=O)cc(Br)c1OC`, with 5.79 µM. For the compound `Nc1ncccc1C(=O)OCC(=O)N1CCN(S(=O)(=O)c2ccc(Cl)cc2)CC1`, the IC50 was 7.74 µM. On to `CCCNC(=O)c1nnsc1S(=O)(=O)c1ccc(Cl)cc1`, for which the IC50 is 8.04 µM. In the case of `Clc1ccc(-c2csc3ncnc(NCCN4CCOCC4)c23)cc1`, the IC50 is 8.15 µM. Take `COc1ccc(C(C(=O)NC2CCCCC2)N(C(=O)CCl)c2ccc(OC)cc2)cc1` (centres undefined): the IC50 was 7.79 µM. Take `O=C(Nc1cccc(C(F)(F)F)c1)Nc1nnc([C@@H]2C[C@H](O)[C@@H](CO)O2)s1`: the IC50 is 5.86 µM. Then `NC(=S)N/N=C1\CCOc2ccc(Cl)cc21`, with 6.9 µM.

As to `c1ccc(-c2nnc(-c3ccccn3)nc2NC2CCCCC2)cc1`, the IC50 was 3.94 µM. With `Cc1ccc(-n2c(C)cc(C(=O)COc3cccnc3[N+](=O)[O-])c2C)cc1`, the IC50 was > 35.9 µM (inactive). As to `COc1ccccc1C(=O)N(CCC1CCCN1C)c1nc2ccccc2s1` (centres undefined), the IC50 is > 35.9 µM (inactive).

For the compound `CCCC(=O)NC(c1ccc(Cl)cc1Cl)c1ccc2cccnc2c1O` (centres undefined), the IC50 result is “inactive”. For `Cc1ccc(C(=O)Nc2cnc3ccccc3c2)cc1`, the IC50 entry was “inactive”. Take `NNC(=O)c1cc2ccccc2cc1O`: the IC50 was 7.35 µM.

Take `O=C(CCCc1nc(-c2ccccc2Cl)no1)NC1CCCC1`: the IC50 is 8.14 µM. For `Cc1ccc(OCC(=O)c2cc(C)n(-c3ccccc3)c2C)c([N+](=O)[O-])n1` the value was “inactive”; for `Cc1c(Cl)cccc1NC(=O)Nc1ccccc1C(N)=O`, > 35.9 µM (inactive). In the case of `CCN(C(C)=O)c1cnc(C=NNC(N)=S)c2ccccc12`, the IC50 was 4.67 µM. Turning to `COc1ccc(CCNC(=O)c2nnn(-c3ccc4c(c3)OCCO4)c2N)cc1OC`, the IC50 was > 35.9 µM (inactive).

In the case of `O=[N+]([O-])c1cccc2c1ccc1ncccc12`, the IC50 is 8.07 µM. For `CC(C)(C)c1ccc(Oc2ccc(N)cn2)cc1` the value was “inactive”. For `CCOC(=O)C(C(C)=O)c1c(Br)c(O)c(O)c2c(C(=O)c3ccc(C)cc3)coc12` (centres undefined) the value was 4.11 µM.

`CCCS(=O)(=O)Nc1ccc(Nc2c3ccccc3nc3ccccc23)c(OC)c1`: the IC50 was 0.605 µM. In the case of `COc1ccc(-c2cn[nH]c2-c2ccc(OC)cc2O)cc1`, the IC50 is 2.89 µM.

For `CN(C)/C=C/C(=O)c1ccc2noc(-c3ccccc3)c2c1`, the IC50 was 3.72 µM. Turning to `Cc1nc(N2CCC(C(N)=O)CC2)c2c(-c3cccs3)csc2n1`, the IC50 is 6.94 µM. For `C=CS(=O)(=O)N(Cc1ccc(Cl)c(Cl)c1)C[C@@H](O)CO`, the IC50 is 6.97 µM. As for `O=[N+]([O-])c1nn(-c2ccc3c(c2)OCCO3)n(O)c1=Nc1ccccc1`, the IC50 is 1.08 µM. For `Cc1ccc2occ(/C=N/NC(=O)c3ccccc3Br)c(=O)c2c1` the value was “inactive”; for `Cc1ccc(-n2c(Cl)c(Cl)nc(Cl)c2=O)cc1`, “inactive”.
